The text below walks through data of patent US11753626B2, “Tumor cell suspension cultures and related methods” (Beijing Percans Oncology Co., Ltd., priority 2016, dated 2023).

For the assay, the system named is tumor cell clusters from colorectal cancer patients. The assay is described as follows: ex vivo drug sensitivity assay of tumor cell clusters in suspension culture (Edu incorporation). It is filed as cell-based, human. Conditions: FIG. 4; test conditions of FIG. 3B; short-term suspension culture in defined growth medium. The procedure: Briefly, the non-tumor tissues and the necrotic fractions were carefully removed from the tumor specimen. The tumor tissues were cut into small pieces less than 1 mm in diameter using scissors. Minced tumor fractions were transferred into a sterile 100-ml triangle glass flask loaded with a magnet stir bar. A 10-15 ml digestion media containing 0.25 U/ml Liberase DH was added into the minced tumor tissues to start enzyme digestion. The enzyme mixture was incubated at 37° C. for 1-2 hours with moderate stirring. The partially digested tumor cell clusters were filtered through a 100-μm cell retainer. The filtrates were re-filtered through a 40-μm cell restrainer. The tumor cell clusters retained on the 40-μm cell restrainer was collected, wash twice with HBSS, then re-suspended in a defined growth media supplemented with cell growth factors and small molecule inhibitors.
For ex vivo drug sensitivity assays, the tumor cell clusters were recovered in a defined growth medium overnight. The defined growth medium was StemPro hESC SFM supplement with Nicotinamide, Wnt3A, Noggin, R-spondin-1, and Y27632. The tumor cell clusters were then exposed to drug (e.g., Docetaxel at 2 μM (Cmax)) for 24 hours before the drug was washed away. Following exposure with drug, the tumor cell clusters were labeled with 5-ethynyl-2′-deoxyuridine (Edu) to assess the tumor cell proliferation rates. The labeling started at 48 hours after the drug exposure and continued for 96 hours. In the control group, tumor cell clusters received no drug exposure with media change, but were similarly labeled with Edu. The labeled tumor cell clusters were dissociated into single cells and fixed. The fixed cells were stained with Hoechst 33342 in PBS containing 0.2% Triton X-100 overnight at 4° C. The incorporated Edu was detected by Click-iT reaction where fixed cells were incubated with a reaction mixture containing 1× Click-iT Edu reaction buffer, CuSO4, and azide-conjugated Alexa Fluor dye in the dark. The stained cells were washed with PBS before being distributed into a black wall plate for image acquisition and analysis.
For image acquisition and analysis, the stained tumor cells were imaged by a high-content screening (HCS) platform (Thermo Scientific Cellomics ArrayScan XTi HCS reader). The 10× objective was used to collect images. Twenty-five fields were imaged for each well, and more than 3000 cells were captured for the analysis. From the images two fluorescent signals were obtained from the HCS reader. Blue fluorescent signals recorded nucleus signals stained with Hoechst 33342, and green fluorescent signal detected the Edu incorporated in newly synthesized DNA. The Edu positive subpopulation cells percentage was calculated as percent of the total cell counts. […]
With `C#Cc1cccc(Nc2ncnc3cc(OCCOC)c(OCCOC)cc23)c1` [erlotinib], the “growth of tumor cell clusters (inhibition by tested drug)” value was “not completely inhibited”. Then `O=C1[O][Pt]2([NH][C@@H]3CCCC[C@H]3[NH]2)[O]C1=O` [oxaliplatin], with “not completely inhibited”; and `CNC(=O)c1cc(Oc2ccc(NC(=O)Nc3ccc(Cl)c(C(F)(F)F)c3)cc2)ccn1` [sorafenib], with “not completely inhibited”. Then `C[C@@H](Oc1cc(-c2cnn(C3CCNCC3)c2)cnc1N)c1c(Cl)ccc(F)c1Cl` [crizotinib], with “not completely inhibited”.
